The source of these data is patent publication US10407395B2, “Benzimidazole compound and medical use thereof” (Sumitomo Dainippon Pharma Co., Ltd., priority 2015, dated 2019).

This experiment concerns the target human SCN9A (Nav 1.7) (Homo sapiens, UniProt Q15858). As to the kind of experiment: Measurement of Na ion current (Nav 1.7) by automated patch clamp assay in cells stably-expressing human SCN9A. The following applies: holding potential inactivating 50% Nav 1.7 channel (around −60 mV), read-out: Inhibitory rate (%) of Na ion current; for inhibition at 100 µM: compound concentration 100 μmol/L (footnoted examples); for inhibition at 10 µM: compound concentration 10 μmol/L. The class given is cell-based. The protocol:
Measurement of Na Ion Current in Voltage-Dependent Na Channel Gene Expressed Cell Nav 1.7 current was measured by automated patch clamp assay using cells stably-expressing human SCN9A. Cells Stably-expressing Human SCN9A Tetracycline-induced cells stably-expressing SCN9A were obtained from ChanTest Corporation. […] Next day, the Na ion current was measured by automated patch clamp assay. Electrophysiologic Measurement of Na Ion Current The Na ion current was measured by automated patch clamp assay using the following extracellular solution and intracellular solution. […] The control of the stimulating pulse and the data acquisition were carried out using EPC10 amplifier and Patch Master Software (HEKA). Data were sampled at 10 kHz, and low-pass filtered at 3 kHz. All the measurements were carried out at room temperature. […] The inhibitory rate of the Na ion current by the test compounds was calculated according to the following calculating formula with the peak current value generated by the depolarizing pulse. […] The inhibitory rate of Na ion current by each Example Compound was evaluated.
For orientation: In patch-clamp work, channel activity is measured electrically.

Molecules are shown by their SMILES.

Sequence of human SCN9A (Nav 1.7) (Q15858 whole entry): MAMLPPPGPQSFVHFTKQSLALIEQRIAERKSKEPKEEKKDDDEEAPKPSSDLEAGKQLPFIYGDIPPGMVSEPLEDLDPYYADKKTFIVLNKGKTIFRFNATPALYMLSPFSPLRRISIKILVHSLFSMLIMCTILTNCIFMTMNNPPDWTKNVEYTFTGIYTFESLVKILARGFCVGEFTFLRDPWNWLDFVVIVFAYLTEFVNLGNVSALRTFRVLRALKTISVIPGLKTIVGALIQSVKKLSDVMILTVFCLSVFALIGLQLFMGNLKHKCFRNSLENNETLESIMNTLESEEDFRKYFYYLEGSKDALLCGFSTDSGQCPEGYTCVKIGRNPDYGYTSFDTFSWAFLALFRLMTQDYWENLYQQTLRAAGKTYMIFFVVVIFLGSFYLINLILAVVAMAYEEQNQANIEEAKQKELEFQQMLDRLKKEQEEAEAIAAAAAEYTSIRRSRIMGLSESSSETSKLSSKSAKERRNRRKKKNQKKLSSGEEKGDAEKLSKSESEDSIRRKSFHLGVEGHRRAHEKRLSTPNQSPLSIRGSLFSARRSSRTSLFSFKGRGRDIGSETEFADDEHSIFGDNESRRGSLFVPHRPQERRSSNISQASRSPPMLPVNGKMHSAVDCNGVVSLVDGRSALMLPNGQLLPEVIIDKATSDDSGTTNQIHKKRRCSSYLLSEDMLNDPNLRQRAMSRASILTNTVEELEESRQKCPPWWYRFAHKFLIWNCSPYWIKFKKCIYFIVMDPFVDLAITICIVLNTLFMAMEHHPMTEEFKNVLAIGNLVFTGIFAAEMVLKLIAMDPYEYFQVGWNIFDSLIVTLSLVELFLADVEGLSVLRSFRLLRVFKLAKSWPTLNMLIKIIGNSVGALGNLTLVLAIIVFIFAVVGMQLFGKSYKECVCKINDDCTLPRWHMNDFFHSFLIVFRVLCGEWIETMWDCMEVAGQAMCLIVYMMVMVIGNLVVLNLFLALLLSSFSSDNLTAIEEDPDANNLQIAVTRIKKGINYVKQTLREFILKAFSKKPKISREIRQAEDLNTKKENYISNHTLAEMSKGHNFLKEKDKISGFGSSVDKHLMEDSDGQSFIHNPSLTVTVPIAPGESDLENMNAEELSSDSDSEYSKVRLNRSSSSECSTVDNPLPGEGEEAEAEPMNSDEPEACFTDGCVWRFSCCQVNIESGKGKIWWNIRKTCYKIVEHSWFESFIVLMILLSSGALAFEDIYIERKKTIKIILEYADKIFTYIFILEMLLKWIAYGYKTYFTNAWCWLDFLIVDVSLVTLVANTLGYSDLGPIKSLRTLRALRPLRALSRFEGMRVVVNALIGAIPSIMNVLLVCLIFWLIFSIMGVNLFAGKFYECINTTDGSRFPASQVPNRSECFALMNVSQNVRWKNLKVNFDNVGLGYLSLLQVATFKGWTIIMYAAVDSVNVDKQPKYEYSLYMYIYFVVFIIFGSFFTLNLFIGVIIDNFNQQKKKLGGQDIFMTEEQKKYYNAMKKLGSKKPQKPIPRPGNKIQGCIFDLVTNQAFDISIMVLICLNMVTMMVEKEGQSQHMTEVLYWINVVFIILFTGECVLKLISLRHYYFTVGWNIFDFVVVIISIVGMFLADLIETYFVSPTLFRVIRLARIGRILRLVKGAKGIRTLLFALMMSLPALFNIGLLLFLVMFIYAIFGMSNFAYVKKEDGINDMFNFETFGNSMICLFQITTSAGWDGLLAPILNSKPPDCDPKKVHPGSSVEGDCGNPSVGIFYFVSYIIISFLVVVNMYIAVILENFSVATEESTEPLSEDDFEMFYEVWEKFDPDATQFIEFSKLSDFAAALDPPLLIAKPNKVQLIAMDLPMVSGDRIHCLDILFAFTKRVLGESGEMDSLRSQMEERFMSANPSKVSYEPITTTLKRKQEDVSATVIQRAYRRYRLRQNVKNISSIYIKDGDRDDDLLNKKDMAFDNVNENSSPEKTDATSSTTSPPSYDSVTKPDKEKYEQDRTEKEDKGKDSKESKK

As to `O[C@H]1CC[C@H](n2cnc3ccc(Oc4ccc(C(F)(F)F)cn4)cc32)CC1` [Example 117], the inhibition at 100 µM is 44%.
For `OC1(Cn2cnc3ccc(Oc4ccc(C(F)(F)F)cn4)cc32)CCCC1` [Example 119], the inhibition at 10 µM was determined as 36%.
On the same count and under the same terms, under `CC(C)(O)Cn1cnc2ccc(Oc3ccc(OC(F)(F)F)cn3)cc21` [Example 120] stands 13%; under `C[C@]1(O)C[C@@H](n2cnc3ccc(Oc4ccc(OC(F)(F)F)cn4)cc32)C1` [Example 121], 21%; under `CC(C)(O)Cn1cnc2ccc(-c3ccc(C(F)(F)F)nc3)cc21` [Example 122], 14%.
Still for that read-out and setting: under `COc1cc(C(F)(F)F)ccc1-c1ccc2ncn(CC(C)(C)O)c2c1` [Example 124] stands 61%.
The same measure, in the same setting: under `COc1ccc(-c2ccc3ncn(CC(C)(C)O)c3c2)cn1` [Example 125] stands 13%.
On to `Cc1ccc(-c2ccc3ncn(CC(C)(C)O)c3c2)cn1` [Example 126], for which the inhibition at 100 µM came to 7%.
Still for that read-out and setting: under `CC(C)(O)Cn1cnc2ccc(-c3ccc(N4CCOCC4)nc3)cc21` [Example 127] stands 16%.
On to `COc1cc(F)ccc1-c1ccc2ncn(CC(C)(C)O)c2c1` [Example 128], for which the inhibition at 10 µM was determined as 24%.
The same measure, in the same setting: under `Cc1cc(Cl)ccc1-c1ccc2ncn(CC(C)(C)O)c2c1` [Example 129] stands 51%.
For `CC(C)(O)Cn1cnc2ccc(-c3ccc(Cl)cc3F)cc21` [Example 130, 1-[6-(4-chloro-2-fluorophenyl)-1H-benzimidazol-1-yl]-2-methylpropan-2-ol], the inhibition at 10 µM was found to be 48%.
The same measure, in the same setting: under `CC(C)(O)Cn1cnc2ccc(-c3ccc(Cl)cc3C(F)(F)F)cc21` [Example 131] stands 62%.
`CC(C)(O)Cn1cnc2ccc(-c3ccc(Cl)cc3Cl)cc21` [Example 132]: the inhibition at 10 µM stood at 65%.
The same measure, in the same setting: under `CC(C)(O)Cn1cnc2ccc(-c3cccc(Cl)c3F)cc21` [Example 133] stands 60%; under `CC(C)(O)Cn1cnc2ccc(-c3ccc(F)c(Cl)c3)cc21` [Example 134], 50%; under `CC(C)(O)Cn1cnc2ccc(-c3ccc(S(C)(=O)=O)cc3F)cc21` [Example 135], 29%.
On the same count and under the same terms, under `CC(C)(O)Cn1cnc2ccc(-c3ccc(C(F)(F)F)cc3Cl)cc21` [Example 136] stands 70%.
`CC(C)(O)Cn1cnc2ccc(-c3cccc(C(F)(F)F)c3)cc21` [Example 137]: the inhibition at 10 µM is 38%.
Same read-out and setting: under `CC(C)(O)Cn1cnc2ccc(-c3ccccc3Cl)cc21` [Example 138] stands 34%; under `CC(C)(O)Cn1cnc2ccc(-c3cccc(Cl)c3)cc21` [Example 139], 35%; under `CC(C)(O)Cn1cnc2ccc(-c3ccccc3OC(F)(F)F)cc21` [Example 140], 24%.
Take `CC(C)(O)Cn1cnc2ccc(-c3cccc(OC(F)(F)F)c3)cc21` [Example 141]: the inhibition at 10 µM amounted to 53%.
On the same count and under the same terms, under `COc1cc(-c2ccc3ncn(CC(C)(C)O)c3c2)cc(C(F)(F)F)c1` [Example 142] stands 55%; under `CC(C)(O)Cn1cnc2ccc(-c3cc(F)cc(Cl)c3)cc21` [Example 143], 35%.
Same read-out and setting: under `CC(C)(O)Cn1cnc2ccc(-c3cnoc3)cc21` [Example 144] stands 19%; under `CC(C)(O)Cn1cnc2ccc(-c3ccc4ncccc4c3)cc21` [Example 145], 15%.
Same read-out and setting: under `CC(C)(O)Cn1cnc2ccc(-c3ccoc3)cc21` [Example 146] stands 17%; under `CC(C)(O)Cn1cnc2ccc(-c3ccc4ocnc4c3)cc21` [Example 147], 15%.
For the compound `OC1(Cn2cnc3ccc(-c4ccc(C(F)(F)F)cc4F)cc32)COC1` [Example 149], the inhibition at 10 µM was determined as 34%.
On the same count and under the same terms, under `OC1(Cn2cnc3ccc(-c4ccc(C(F)(F)F)cc4Cl)cc32)COC1` [Example 150] stands 47%; under `OC1(Cn2cnc3ccc(-c4ccc(Cl)cc4C(F)(F)F)cc32)COC1` [Example 151], 44%.
The same measure, in the same setting: under `OC1(Cn2cnc3ccc(-c4cccc(Cl)c4Cl)cc32)COC1` [Example 152] stands 38%; under `OC1(Cn2cnc3ccc(-c4cccc(Cl)c4F)cc32)COC1` [Example 153], 25%; under `OC1(Cn2cnc3ccc(-c4ccc(F)c(Cl)c4)cc32)COC1` [Example 154], 52%.
On to `OC1(Cn2cnc3ccc(-c4ccc(Cl)c(Cl)c4)cc32)COC1` [Example 155], for which the inhibition at 10 µM came out at 55%.
The same measure, in the same setting: under `OC1(Cn2cnc3ccc(-c4ccc(Cl)cc4Cl)cc32)COC1` [Example 156] stands 54%; under `OC1(Cn2cnc3ccc(-c4cc(Cl)ccc4Cl)cc32)COC1` [Example 157], 51%.
The same measure, in the same setting: under `OC1(Cn2cnc3ccc(-c4cc(Cl)cc(Cl)c4)cc32)COC1` [Example 158] stands 53%.
Same read-out and setting: under `Cc1c(Cl)cccc1-c1ccc2ncn(CC3(O)COC3)c2c1` [Example 159] stands 45%; under `Cc1ccc(Cl)cc1-c1ccc2ncn(CC3(O)COC3)c2c1` [Example 160], 25%.
`OC1(Cn2cnc3ccc(-c4cc(C(F)(F)F)ccc4F)cc32)COC1` [Example 161]: the inhibition at 10 µM is 49%.
On the same count and under the same terms, under `OC1(Cn2cnc3ccc(-c4cc(C(F)(F)F)ccc4Cl)cc32)COC1` [Example 162] stands 63%; under `COc1cc(-c2ccc3ncn(CC4(O)COC4)c3c2)cc(C(F)(F)F)c1` [Example 163], 47%; under `Cc1cc(-c2ccc3ncn(CC4(O)COC4)c3c2)cc(C(F)(F)F)c1` [Example 164], 63%.
Regarding `OC1(Cn2cnc3ccc(-c4cc(F)cc(Cl)c4)cc32)COC1` [Example 165], the inhibition at 10 µM amounted to 35%.
Consider `Cc1c(-c2ccc3ncn(CC4(O)COC4)c3c2)cccc1C(F)(F)F` [Example 166], for which the inhibition at 10 µM was determined as 54%.
Same read-out and setting: under `COc1cccc(-c2ccc3ncn(CC4(O)COC4)c3c2)c1Cl` [Example 167] stands 71%.
Same read-out and setting: under `OC1(Cn2cnc3ccc(-c4cccc(C(F)(F)F)c4Cl)cc32)COC1` [Example 168] stands 77%; under `Cc1cc(Cl)cc(-c2ccc3ncn(CC4(O)COC4)c3c2)c1` [Example 169], 46%; under `CC(C)(O)CCn1cnc2ccc(-c3ccc(F)cc3)cc21` [Example 170], 32%.
Still for that read-out and setting: under `CC(C)(O)CCn1cnc2ccc(-c3ccc(Cl)cc3)cc21` [Example 171] stands 60%; under `CC(C)(O)CCn1cnc2ccc(-c3ccc(C(F)(F)F)cc3)cc21` [Example 172], 64%.
`COc1cc(C(F)(F)F)ccc1-c1ccc2ncn(CCC(C)(C)O)c2c1` [Example 173, 4-{6-[2-methoxy-4-(trifluoromethyl)phenyl]-1H-benzimidazol-1-yl}-2-methylbutan-2-ol]: the inhibition at 10 µM came out at 80%.
Consider `CC(C)(O)CCn1cnc2ccc(-c3ccc(C(F)(F)F)cc3F)cc21` [Example 174], for which the inhibition at 10 µM was found to be 66%.
